# Data: PubChem BioAssay (NCI)
# Several values for one entry are separate records, joined by “and”; a condition that tells them apart may be missing. Identical values can stand only once.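 48-hour exposure; five concentrations; linearly interpolated endpoints. Here, GI50 denotes the concentration required for 50% inhibition of growth. Definition used: TGI = concentration required for complete inhibition of growth.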
# Columns and labels:
# Assay in all cases: NCI-60 cell line screen, 48 h
# 786-0 renal = tested on: 786-0 renal
# A498 renal = tested on: A498 renal
# IGROV1 ovarian = tested on: IGROV1 ovarian
# NCI-H226 lung = tested on: NCI-H226 lung
# NCI-H23 lung = tested on: NCI-H23 lung
# NCI-H522 lung = tested on: NCI-H522 lung
# OVCAR-4 ovarian = tested on: OVCAR-4 ovarian
# SF-295 CNS = tested on: SF-295 CNS
# SK-MEL-2 melanoma = tested on: SK-MEL-2 melanoma
# UACC-257 melanoma = tested on: UACC-257 melanoma
Compound,GI50 (786-0 renal),TGI (786-0 renal),GI50 (A498 renal),TGI (A498 renal),GI50 (IGROV1 ovarian),TGI (IGROV1 ovarian),GI50 (NCI-H226 lung),TGI (NCI-H226 lung),GI50 (NCI-H23 lung),TGI (NCI-H23 lung),GI50 (NCI-H522 lung),TGI (NCI-H522 lung),GI50 (OVCAR-4 ovarian),TGI (OVCAR-4 ovarian),GI50 (SF-295 CNS),TGI (SF-295 CNS),GI50 (SK-MEL-2 melanoma),TGI (SK-MEL-2 melanoma),GI50 (UACC-257 melanoma),TGI (UACC-257 melanoma)
COc1ccc(-c2cc(-c3ccc(Nc4nc(Nc5ccc(Cl)cc5)nc(Nc5ccc(Cl)cc5)n4)cc3)nc(N)c2C#N)cc1,2.24 µM,5.68 µM,2.3 µM,5.84 µM,2.25 µM,5.88 µM,0.676 µM,1.89 µM,3.52 µM,> 87.7 µM,1.75 µM,5.53 µM,2.51 µM,> 100 µM,1.68 µM,13.4 µM,1.66 µM,3.2 µM,1.79 µM,3.63 µM
CCCCCCC(=O)C/C(CCC(=O)N(Cc1ccccc1)Cc1ccccc1)=N\Nc1ccc([N+](=O)[O-])cc1[N+](=O)[O-],–,> 100 µM,–,> 100 µM,–,> 100 µM,–,> 100 µM,–,> 100 µM,–,> 100 µM,–,> 100 µM,–,> 100 µM,–,> 100 µM,–,> 100 µM
O=C(Nc1n[nH]c2nc(-c3ccco3)c(Br)cc12)C1CC1,> 25 µM,> 25 µM,> 12.5 µM,> 25 µM,> 25 µM,> 25 µM,> 25 µM,> 25 µM,> 25 µM,> 25 µM,> 25 µM,> 25 µM,> 25 µM,> 25 µM,> 25 µM,> 25 µM,> 25 µM,> 25 µM,> 25 µM,> 25 µM
COc1cccc(NC(=O)c2sc3nc4c(cc3c2N)CCCC4)c1,0.42 µM,19.2 µM,0.349 µM,14.2 µM,4.1 µM,> 100 µM,2.6 µM,43.8 µM,0.813 µM,> 100 µM,0.806 µM,> 100 µM,0.998 µM,39.9 µM,0.481 µM,14 µM,0.69 µM,18.6 µM,0.727 µM,> 100 µM
O=[N+]([O-])c1ccc(-c2ccc(/C=N/n3c(-c4ccc(Cl)cc4)n[nH]c3=S)o2)cc1,–,46.2 µM,–,> 100 µM,–,> 100 µM,–,> 58.5 µM,–,> 56.6 µM,–,> 100 µM,–,> 61.8 µM,–,> 64 µM,–,> 100 µM,–,> 100 µM
O=C(c1cccs1)c1c(C(F)(F)F)n([O-])c2ccc(C(F)(F)F)cc2[n+]1=O,0.188 µM,0.339 µM,1.65 µM,3.04 µM,0.132 µM,0.278 µM,0.524 µM,1.42 µM,0.353 µM,1 µM,0.204 µM,0.455 µM,0.224 µM,0.531 µM,0.464 µM,1 µM,0.785 µM,1.85 µM,1.59 µM,3.15 µM
FC(F)(F)P1C2C=CC(CC2)C1(F)F (stereo unspecified),–,> 100 µM,–,> 100 µM,–,> 100 µM,–,> 100 µM,–,> 100 µM,–,> 100 µM,–,> 100 µM,–,> 100 µM,–,> 100 µM,–,> 100 µM
O=C1C2CC(Cl)C(SSC3CC4C(=O)N(SC(Cl)(Cl)C(Cl)Cl)C(=O)C4CC3Cl)CC2C(=O)N1SC(Cl)(Cl)C(Cl)Cl (stereo unspecified),–,3.65 µM,–,7.73 µM,–,3.06 µM,–,26.4 µM,–,5.65 µM,–,1.5 µM,–,4.31 µM,–,17.1 µM,–,3.65 µM,–,5.79 µM
CNC(=O)OCc1nc(SC(C)C)n(C)c1COC(=O)NC,–,> 100 µM,–,> 100 µM,–,> 100 µM,–,> 100 µM,–,> 100 µM,–,> 100 µM,–,> 100 µM,–,> 100 µM,–,> 100 µM,–,> 100 µM
Cc1ccc(S(=O)(=O)NC(CCC(=O)Nc2ccc(Cl)cc2)C(=O)Nc2ccc(Cl)cc2)cc1 (stereo unspecified),0.726 µM,5.69 µM,0.717 µM,5.34 µM,0.852 µM,8.58 µM,0.841 µM,5.67 µM,1.49 µM,9.21 µM,0.496 µM,7.01 µM,0.775 µM,3.46 µM,0.187 µM,0.956 µM,0.57 µM,6.64 µM,0.702 µM,7.5 µM
COc1cc(O)c(C(=O)/C=C/c2ccccc2)c(OC)c1,–,21.6 µM,–,16.5 µM,–,17.4 µM,–,12.8 µM,–,19.4 µM,–,12.1 µM,–,26.8 µM,–,26.9 µM,–,21.1 µM,–,23.6 µM
CCCCN(CCCC)C(=O)C(=O)CC(=O)c1ccc(Br)cc1,–,> 100 µM,–,> 100 µM,–,> 100 µM,–,> 100 µM,–,> 100 µM,–,> 100 µM,–,> 100 µM,–,> 100 µM,–,> 100 µM,–,> 100 µM
O=C(CCCc1c[nH]c2ccccc12)NC1CC(=O)c2c(Br)sc(Br)c21 (stereo unspecified),19.2 µM,34.9 µM,24.2 µM,40.5 µM,9.05 µM,40.5 µM,19.6 µM,35.5 µM,12.2 µM,26.1 µM,21.1 µM,52.2 µM,12.8 µM,25.9 µM,22.7 µM,54.4 µM,30.5 µM,> 100 µM,19.2 µM,48.1 µM
O=C1c2ccccc2-c2c1c1ccccc1c(=O)n2CCO,–,> 100 µM,–,> 100 µM,–,> 100 µM,–,> 38.1 µM,–,> 61.9 µM,–,> 100 µM,–,> 100 µM,–,> 96.3 µM,–,87.2 µM,–,> 100 µM
O/N=C1\CCc2cc(-c3nc(C4CCNCC4)[nH]c3-c3ccncc3)ccc21,> 25 µM,> 25 µM,> 25 µM,> 25 µM,> 25 µM,> 25 µM,> 25 µM,> 25 µM,> 25 µM,> 25 µM,> 25 µM,> 25 µM,> 25 µM,> 25 µM,> 25 µM,> 25 µM,16 µM,> 25 µM,5.17 µM,> 25 µM
O=C1c2cc3c(cc2-c2c1c1cc(Cl)c(Cl)cc1c(=O)n2CCCn1ccnc1)OCO3,< 0.01 µM,11.4 µM,0.0107 µM,0.0638 µM,0.0295 µM,> 100 µM,< 0.01 µM,–,< 0.01 µM,0.232 µM,< 0.01 µM,0.835 µM,0.0495 µM,> 100 µM,< 0.01 µM,0.0131 µM,0.222 µM,26.7 µM,0.0122 µM,1.31 µM
O=C1C=C[C@]2(C[C@@H](c3cccc(C(F)(F)F)c3)O[C@@H](c3cccc(C(F)(F)F)c3)O2)O1,1.35 µM,2.95 µM,1.81 µM,9.21 µM,1.66 µM,4.41 µM,2.18 µM,10.5 µM,4.03 µM,18.7 µM,1.59 µM,3.99 µM,5.24 µM,19.3 µM,4.18 µM,17.2 µM,2.21 µM,6.54 µM,2.29 µM,5.77 µM
OB([O][Hg][c]1ccccc1)[O][Hg][c]1ccccc1,0.281 µM,0.856 µM,0.98 µM,2.48 µM,0.0949 µM,0.401 µM,1.52 µM,4.33 µM,0.784 µM,2.17 µM,0.0279 µM,0.0752 µM,0.334 µM,2.01 µM,1.6 µM,3.17 µM,0.168 µM,0.509 µM,0.317 µM,1.14 µM
CCOC(=O)/N=c1\ss/c(=N\C(=S)N(C)C)n1-c1ccccc1,–,> 100 µM,35 µM,> 100 µM,> 100 µM,> 100 µM,> 100 µM,> 100 µM,–,> 100 µM,0.401 µM,–,> 100 µM,–,–,> 100 µM,–,> 100 µM,> 100 µM,> 100 µM
COc1ccc(/C(=C/c2cc(OC)c(OC)c(OC)c2)[N+](=O)[O-])cc1,1.66 µM,3.05 µM,1.76 µM,3.63 µM,1.8 µM,3.94 µM,2.29 µM,5.78 µM,2.02 µM,4.64 µM,1.95 µM,3.62 µM,1.63 µM,3.29 µM,2.09 µM,5.34 µM,2.04 µM,4.92 µM,1.67 µM,3.48 µM
COc1cc(CCc2cc(NC(=O)c3ccc(N4C[C@@H](C)N[C@@H](C)C4)cc3)n[nH]2)cc(OC)c1,> 10 µM and 6.16 µM,> 10 µM and 20.4 µM,0.014 µM and < 0.0107 µM,0.0838 µM and 0.12 µM,2.93 µM and 4.59 µM,> 10 µM and 19.8 µM,–,> 10 µM and 21.3 µM,> 10 µM and 3.98 µM,> 10 µM and 17.3 µM,> 10 µM and 9.95 µM,> 10 µM and 24.5 µM,> 10 µM and 3.73 µM,> 10 µM and 18.5 µM,> 10 µM and 6.8 µM,> 10 µM and 21.3 µM,4.17 µM and 4.95 µM,> 10 µM and 18.2 µM,> 10 µM and 2.08 µM,> 10 µM and 5.31 µM
N#C/C(=C\c1c(-c2ccccc2)[nH]c2ccccc12)C(=O)c1ccc(Cl)cc1,5.53 µM,23.5 µM,2.82 µM,14.7 µM,4.65 µM,41.5 µM,7.5 µM,47.2 µM,3.71 µM,38.5 µM,2.89 µM,> 30 µM,3.68 µM,22.8 µM,2.18 µM,16.4 µM,7.09 µM,> 39.3 µM,30.2 µM,> 87.3 µM
O=C(O)CN(c1ccc(Cl)cc1)S(=O)(=O)c1ccccc1,–,> 100 µM,–,> 100 µM,–,> 100 µM,–,> 100 µM,–,> 100 µM,–,> 100 µM,–,> 100 µM,–,> 100 µM,–,> 100 µM,–,> 100 µM
CC1=C(C(=O)Nc2ccccc2)C(c2ccc3c(c2)OCO3)C(C(=O)Nc2ccccc2)=C(C)N1,–,> 100 µM,–,> 100 µM,–,> 100 µM,–,> 100 µM,–,> 100 µM,–,73.3 µM,–,81.4 µM,–,> 100 µM,–,74.5 µM,–,> 100 µM
COC(=O)[C@]12CC[C@@H](C)[C@H](C)[C@@H]1C1=CC[C@@H]3[C@@]4(C)CC(=O)[C@H](O)[C@@]5(C)COC(=C45)C[C@@]3(C)[C@]1(C)CC2,17.8 µM,34.2 µM,18.5 µM,33.2 µM,19.3 µM,37.6 µM,17.7 µM,38.7 µM,17.5 µM,35.7 µM,19.4 µM,35.7 µM,17.1 µM,36 µM,17.9 µM,33.7 µM,18.9 µM,37.2 µM,19.2 µM,33.4 µM
CCCCCCCCCCCCCCCCCCNC(=O)[C@H]1CSC(c2ccc(OC)c(F)c2)N1 (stereo partly specified),7.18 µM,> 46.2 µM,–,> 38.3 µM,6.65 µM,29.1 µM,2.28 µM,6.86 µM,7.22 µM,27 µM,> 29.4 µM,> 51.6 µM,14 µM,> 41.3 µM,26 µM,> 52.2 µM,2.27 µM,5.48 µM,> 19.9 µM,> 44.1 µM
COc1cc[nH]c1/C=C1\C(=O)Nc2ccc(F)c(C#C[C@@H](O)[C@@H](N)[C@@H](C)O)c21,0.708 µM,3.37 µM,0.397 µM,0.955 µM,0.618 µM,5.24 µM,0.526 µM,2.54 µM,0.649 µM,3.33 µM,0.575 µM,1.77 µM,0.671 µM,6.85 µM,0.689 µM,3.44 µM,0.39 µM,0.923 µM,0.628 µM,2.17 µM
NNC(=O)/C(=C/c1cccc([N+](=O)[O-])c1)NC(=O)c1ccccc1,–,> 100 µM,–,> 100 µM,–,> 100 µM,–,> 100 µM,–,> 100 µM,–,> 100 µM,–,> 100 µM,–,> 100 µM,–,> 100 µM,–,> 100 µM
Cc1c(NC(=O)C(=O)N=NC(=O)c2ccncc2)c(O)c2ccccc2c1O,–,59.2 µM,–,43.5 µM,–,28.5 µM,–,29.5 µM,–,23.5 µM,–,26.2 µM,–,27.5 µM,–,23.3 µM,–,11 µM,–,24.2 µM
